The values that follow come from patent publication US12227488B2, “Small molecule degraders of Helios and methods of use” (DANA-FARBER CANCER INSTITUTE, INC., priority 2018, dated 2025).

SMILES strings stand for the structures.

Assay [1] deals with T1, IKZF1 (Homo sapiens, UniProt Q13422).
T1 construct: expressed in transfected cells; host or cells: Flp-In 293
The experiment in a line: Cellular degradation assay, eGFP-IKZF1Δ fusion with mCherry reporter in Flp-In 293 cells. Format: cell-based. Conditions: 5 h incubation, n=1. The essentials:
(§1)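 DC50,5 h derived by variable-slope nonlinear fit of the per-well ratio of GFP-positive to mCherry-positive cells, imaged after 5 h compound exposure at 0.5% DMSO.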

For assay [2], the system named is IKZF2. As to the kind of experiment: Cellular degradation assay, eGFP-IKZF2Δ fusion with mCherry reporter in Flp-In 293 cells. Format: cell-based. Conditions: 5 h incubation, n=1. In short, it runs like this:
as §1

In assay [3] the target is GSPT1 (Homo sapiens, UniProt P15170+Q96SW2). As to the kind of experiment: Cellular degradation assay, eGFP-GSPT1 fusion with mCherry reporter in Flp-In 293 cells. Details: expressed in transfected cells; host or cells: Flp-In 293. Particulars: 5 h incubation, n=1. Format: cell-based. As to the method: IKZF1Δ, IKZF2Δ, GSPT1 and SALL4 ZnF1-2 were subcloned into mammalian pcDNA5/FRT Vector (Ampicillin and Hygromycin B resistant) modified to contain MCS-eGFP-P2A-mCherry. […] Following 2-3 passage cycle, FACS (FACSAria™ II, BD) was used to enrich for cells expressing eGFP and mCherry. Cells stably expressing the IKZF1Δ, IKZF2Δ, GSPT1 or SALL4 Znf1-2 GFP fusions with mCherry reporter were seeded at 30-50% confluency in 384-well plates with 50 μL FluoroBrite™ DMEM media (Thermo Fisher Scientific, A18967) containing 10% FBS per well a day before compound treatment. Compound titrations were dispensed using a D300e Digital Dispenser (HP), normalized to 0.5% DMSO, and incubated with cells for 5 hours.
The resulting images were analyzed using CellProfiler™. A series of image analysis steps (‘image analysis pipeline’) was constructed. First, the red and green channels were aligned and cropped to target the middle of each well (to avoid analysis of heavily clumped cells at the edges), and a background illumination function was calculated for both red and green channels of each well individually and subtracted to correct for illumination variations across the 384-well plate from various sources of error. An additional step was then applied to the green channel to suppress the analysis of large auto fluorescent artifacts and enhance the analysis of cell specific fluorescence by way of selecting for objects under a given size, 30 A.U., and with a given shape, speckles. mCherry-positive cells were then identified in the red channel filtering for objects between 8-60 pixels in diameter and using intensity to distinguish between clumped objects. The green channel was then segmented into GFP positive and negative areas and objects were labeled as GFP positive if at least 40% of it overlapped with a GFP positive area. The fraction of GFP-positive cells/mCherry-positive cells in each well was then calculated, and the green and red images were rescaled for visualization.
The degradation assay was performed as described above. […] Degradation was measured after 5 h of compound treatment and the concentrations that lead to half degradation at 5 h (DC50,5 h) were calculated using the nonlinear fit variable slope model (GraphPad Software).

Assay [4] concerns the target T2, CRBN and Helios (IKZF2) (Homo sapiens, UniProt Q96SW2+Q9UKS7).
T2 construct: His (N); Strep (N)
As to the kind of experiment: TR-FRET dimerization assay (CRBN-IKZF2 ternary complex formation). The format is binding. Conditions: n=1. In short, it runs like this:
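Compound-induced IKZF2 recruitment to CRBN was read as the 520/490 nm TR-FRET ratio after 15 min at rt. The mix held biotinylated IKZF2, BODIPY-labeled CRBN bound to DDB1 lacking the BPB propeller, tracer Tb-streptavidin and compound titrations; n=1, from ≥3 technical replicates per well.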

The mark [5] stands for this setting: compound concentration 2.00E−05.
[6] abbreviates: compound concentration 2.00E−06.
Where [7] appears, read: compound concentration 2.00E−07.
[8] abbreviates: compound concentration 6.6667E−05.
Setting [9] is: compound concentration 6.6667E−06.
The mark [10] stands for this setting: compound concentration 6.6667E−07 (667 nM).

GSPT1, sequence (P15170 whole entry, the tested form may be a part): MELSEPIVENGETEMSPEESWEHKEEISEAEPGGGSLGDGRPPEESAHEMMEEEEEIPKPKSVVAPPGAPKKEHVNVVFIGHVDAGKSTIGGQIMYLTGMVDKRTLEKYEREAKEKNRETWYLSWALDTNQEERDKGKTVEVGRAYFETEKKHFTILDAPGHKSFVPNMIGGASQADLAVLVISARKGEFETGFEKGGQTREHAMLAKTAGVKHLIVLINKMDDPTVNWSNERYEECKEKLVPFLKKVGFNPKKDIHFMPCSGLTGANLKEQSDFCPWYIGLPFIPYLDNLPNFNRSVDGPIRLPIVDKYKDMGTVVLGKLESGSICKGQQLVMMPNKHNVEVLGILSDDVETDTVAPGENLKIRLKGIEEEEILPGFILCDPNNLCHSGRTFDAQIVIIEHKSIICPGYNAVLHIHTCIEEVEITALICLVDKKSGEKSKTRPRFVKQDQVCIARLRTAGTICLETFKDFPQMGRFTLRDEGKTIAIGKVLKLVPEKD
GSPT1, sequence (Q96SW2 whole entry, the tested form may be a part): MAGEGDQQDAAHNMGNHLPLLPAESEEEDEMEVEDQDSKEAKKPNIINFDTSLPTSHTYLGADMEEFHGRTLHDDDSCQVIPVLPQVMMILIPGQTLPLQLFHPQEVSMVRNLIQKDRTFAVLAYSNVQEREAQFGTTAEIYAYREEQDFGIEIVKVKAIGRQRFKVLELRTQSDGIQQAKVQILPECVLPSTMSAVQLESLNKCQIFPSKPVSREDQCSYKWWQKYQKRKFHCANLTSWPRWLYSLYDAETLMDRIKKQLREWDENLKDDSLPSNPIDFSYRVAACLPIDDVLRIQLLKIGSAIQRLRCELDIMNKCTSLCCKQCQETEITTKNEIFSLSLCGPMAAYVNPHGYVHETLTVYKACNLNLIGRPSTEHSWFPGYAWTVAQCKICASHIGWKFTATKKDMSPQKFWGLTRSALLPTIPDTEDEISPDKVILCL
GSPT1, sequence (Q16531 whole entry partner, the tested form may be a part): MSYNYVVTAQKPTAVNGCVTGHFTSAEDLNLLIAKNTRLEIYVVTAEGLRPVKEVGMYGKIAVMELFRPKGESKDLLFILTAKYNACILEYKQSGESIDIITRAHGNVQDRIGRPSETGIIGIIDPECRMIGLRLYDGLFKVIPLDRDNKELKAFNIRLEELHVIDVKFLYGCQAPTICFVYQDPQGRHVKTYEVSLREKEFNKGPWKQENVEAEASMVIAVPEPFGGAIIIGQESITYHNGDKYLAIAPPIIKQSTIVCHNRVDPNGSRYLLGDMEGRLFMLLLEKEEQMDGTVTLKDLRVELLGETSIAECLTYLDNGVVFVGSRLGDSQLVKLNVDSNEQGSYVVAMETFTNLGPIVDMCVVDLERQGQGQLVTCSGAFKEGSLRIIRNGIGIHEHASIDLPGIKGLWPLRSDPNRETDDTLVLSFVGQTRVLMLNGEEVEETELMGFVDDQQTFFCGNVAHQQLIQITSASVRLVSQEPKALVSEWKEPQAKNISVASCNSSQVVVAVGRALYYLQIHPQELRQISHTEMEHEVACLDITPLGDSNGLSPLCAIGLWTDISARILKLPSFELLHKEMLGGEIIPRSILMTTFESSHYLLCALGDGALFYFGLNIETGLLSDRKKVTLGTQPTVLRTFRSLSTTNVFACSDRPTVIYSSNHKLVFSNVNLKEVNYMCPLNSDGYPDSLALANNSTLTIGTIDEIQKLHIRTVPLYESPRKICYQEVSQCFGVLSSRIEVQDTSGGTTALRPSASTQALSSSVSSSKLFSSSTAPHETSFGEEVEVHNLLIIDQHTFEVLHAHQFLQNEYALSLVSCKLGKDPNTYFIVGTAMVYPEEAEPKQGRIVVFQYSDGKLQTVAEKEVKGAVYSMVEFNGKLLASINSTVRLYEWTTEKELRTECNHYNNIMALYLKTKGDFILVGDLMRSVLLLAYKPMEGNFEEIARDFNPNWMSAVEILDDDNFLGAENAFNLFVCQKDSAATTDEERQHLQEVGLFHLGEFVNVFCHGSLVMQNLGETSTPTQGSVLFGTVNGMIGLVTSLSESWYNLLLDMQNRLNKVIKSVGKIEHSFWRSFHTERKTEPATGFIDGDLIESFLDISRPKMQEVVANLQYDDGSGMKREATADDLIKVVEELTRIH
T1 sequence (Q13422 83-213 isoform Q13422-7 limits assumed): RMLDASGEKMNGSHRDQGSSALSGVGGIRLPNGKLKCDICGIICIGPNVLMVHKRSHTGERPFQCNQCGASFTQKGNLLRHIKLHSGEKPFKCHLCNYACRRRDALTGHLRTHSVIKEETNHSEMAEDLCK
T1 sequence (Q96SW2 whole entry partner): as the sequence (Q96SW2 whole entry, the tested form may be a part) above
T1 sequence (Q16531 2-1140 partner limits assumed): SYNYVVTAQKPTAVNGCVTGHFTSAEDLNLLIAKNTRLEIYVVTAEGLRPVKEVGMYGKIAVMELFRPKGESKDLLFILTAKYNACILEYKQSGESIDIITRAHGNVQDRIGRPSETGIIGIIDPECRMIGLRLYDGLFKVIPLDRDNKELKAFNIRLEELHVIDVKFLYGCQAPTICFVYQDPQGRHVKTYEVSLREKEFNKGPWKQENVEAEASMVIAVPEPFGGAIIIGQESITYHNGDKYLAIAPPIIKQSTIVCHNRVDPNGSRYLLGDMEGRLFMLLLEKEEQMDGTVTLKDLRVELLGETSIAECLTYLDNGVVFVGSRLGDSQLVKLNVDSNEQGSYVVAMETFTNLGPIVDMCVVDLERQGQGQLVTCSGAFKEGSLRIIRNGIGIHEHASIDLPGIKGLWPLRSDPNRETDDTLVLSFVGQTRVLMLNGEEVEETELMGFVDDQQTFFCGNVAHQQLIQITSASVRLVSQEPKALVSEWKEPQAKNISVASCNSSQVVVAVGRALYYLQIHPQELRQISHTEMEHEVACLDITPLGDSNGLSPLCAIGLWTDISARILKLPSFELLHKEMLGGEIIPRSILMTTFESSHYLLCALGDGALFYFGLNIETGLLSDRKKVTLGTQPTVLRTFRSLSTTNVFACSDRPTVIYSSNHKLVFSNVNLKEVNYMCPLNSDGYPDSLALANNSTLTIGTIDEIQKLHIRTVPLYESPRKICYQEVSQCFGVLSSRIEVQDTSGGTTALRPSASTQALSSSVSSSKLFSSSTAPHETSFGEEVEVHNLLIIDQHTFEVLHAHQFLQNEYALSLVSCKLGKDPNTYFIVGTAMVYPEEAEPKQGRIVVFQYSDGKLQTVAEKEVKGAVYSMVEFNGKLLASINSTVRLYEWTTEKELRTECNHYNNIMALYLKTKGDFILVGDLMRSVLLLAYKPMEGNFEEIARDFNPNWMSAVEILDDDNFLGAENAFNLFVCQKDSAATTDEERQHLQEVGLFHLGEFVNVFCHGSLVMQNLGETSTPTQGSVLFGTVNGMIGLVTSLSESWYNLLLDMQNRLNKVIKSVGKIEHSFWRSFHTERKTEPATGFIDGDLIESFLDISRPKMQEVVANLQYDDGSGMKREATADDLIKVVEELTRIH
T2 sequence (Q96SW2 whole entry): as the sequence (Q96SW2 whole entry, the tested form may be a part) above
T2 sequence (Q9UKS7 whole entry): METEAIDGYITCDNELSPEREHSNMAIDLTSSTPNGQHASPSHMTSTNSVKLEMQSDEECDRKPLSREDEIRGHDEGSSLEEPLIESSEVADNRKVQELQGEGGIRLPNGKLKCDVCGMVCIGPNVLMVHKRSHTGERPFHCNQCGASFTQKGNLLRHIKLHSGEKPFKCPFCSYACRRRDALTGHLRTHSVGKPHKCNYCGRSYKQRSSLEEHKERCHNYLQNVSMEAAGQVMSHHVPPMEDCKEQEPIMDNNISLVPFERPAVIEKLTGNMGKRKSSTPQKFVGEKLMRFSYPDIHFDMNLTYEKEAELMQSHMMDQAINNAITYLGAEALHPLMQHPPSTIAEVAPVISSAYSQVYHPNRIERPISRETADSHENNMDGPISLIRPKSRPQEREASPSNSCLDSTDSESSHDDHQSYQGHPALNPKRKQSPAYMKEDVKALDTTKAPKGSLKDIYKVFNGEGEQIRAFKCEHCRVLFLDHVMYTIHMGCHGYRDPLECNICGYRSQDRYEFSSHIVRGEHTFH

Consider `Cc1ccc(NC(=O)/C=C/c2cccc(NC3=CC(=O)N(C4CCC(=O)NC4=O)C3=O)c2)cc1Cl` (stereo not drawn) [Compound 57, (E)-N-(3-chloro-4-methylphenyl)-3-(3-((1-(2,6-dioxopiperidin-3-yl)-2,5-dioxo-2,5-dihydro-1H-pyrrol-3-yl)amino)phenyl)acrylamide], for which the “IKZF1 GFP/RFP Relative Abundance” value in assay [1] (setting [5]) is recorded as 0.502; in assay [1] (setting [6]) it was 0.214; in assay [1] (setting [7]), 0.305. Besides, the “IKZF2 GFP/RFP Relative Abundance” value in assay [2] (setting [5]) was found to be 0.843; in assay [2] (setting [6]), 0.622; in assay [2] (setting [7]), 0.656. The entries for the “GSPT1 GFP/RFP Relative Abundance” value in assay [3] (setting [5]), in assay [3] (setting [6]) and in assay [3] (setting [7]) were 0.385, 0.559 and 0.779, respectively. Moreover, the entries for the “TR-FRET-IKZF2 (Normalized to CC-885)” value in assay [4] (setting [8]), in assay [4] (setting [9]) and in assay [4] (setting [10]) were 0.530, 0.365 and 0.282, respectively.

On to `O=C(Cc1ccc(Cl)c(Cl)c1)NCc1cccc(NC2=CC(=O)N(C3CCC(=O)NC3=O)C2=O)c1` (stereo not drawn) [Compound 61, 2-(3,4-dichlorophenyl)-N-(3-((1-(2,6-dioxopiperidin-3-yl)-2,5-dioxo-2,5-dihydro-1H-pyrrol-3-yl)amino)benzyl)acetamide], for which the “IKZF1 GFP/RFP Relative Abundance” value in assay [1] (setting [5]) is listed as 0.111; in assay [1] (setting [6]), 0.104; in assay [1] (setting [7]) it was 0.103. The entries for the “IKZF2 GFP/RFP Relative Abundance” value in assay [2] (setting [5]), in assay [2] (setting [6]) and in assay [2] (setting [7]) were 0.044, 0.045 and 0.050, respectively. The “GSPT1 GFP/RFP Relative Abundance” value was 0.190 in assay [3] (setting [5]), 0.466 in assay [3] (setting [6]) and 0.737 in assay [3] (setting [7]). The entries for the “TR-FRET-IKZF2 (Normalized to CC-885)” value in assay [4] (setting [8]), in assay [4] (setting [9]) and in assay [4] (setting [10]) were 1.465, 1.248 and 1.201, respectively.

Take `Cc1ccc(NC(=O)Cc2cccc(NC3=CC(=O)N(C4CCC(=O)NC4=O)C3=O)c2)cc1Cl` (stereo not drawn) [Compound 50, N-(3-chloro-4-methylphenyl)-2-(3-((1-(2,6-dioxopiperidin-3-yl)-2,5-dioxo-2,5-dihydro-1H-pyrrol-3-yl)amino)phenyl)acetamide]: the “IKZF1 GFP/RFP Relative Abundance” value is reported as 0.073 in assay [1] (setting [5]), 0.068 in assay [1] (setting [6]) and 0.093 in assay [1] (setting [7]). The “IKZF2 GFP/RFP Relative Abundance” value was determined as 0.188 in assay [2] (setting [5]), 0.195 in assay [2] (setting [6]) and 0.267 in assay [2] (setting [7]). The “GSPT1 GFP/RFP Relative Abundance” value in assay [3] (setting [5]) came out at 0.645; in assay [3] (setting [6]) it was 0.702; in assay [3] (setting [7]), 0.643. Moreover, the “TR-FRET-IKZF2 (Normalized to CC-885)” value in assay [4] (setting [8]) was 1.011; in assay [4] (setting [9]) it was 0.889; in assay [4] (setting [10]) it was 0.848.

For the compound `Cc1ccc(NC(=O)N(C)Cc2cccc(NC3=CC(=O)N(C4CCC(=O)NC4=O)C3=O)c2)cc1Cl` (stereo not drawn) [Compound 52, 3-(3-chloro-4-methylphenyl)-1-(3-((1-(2,6-dioxopiperidin-3-yl)-2,5-dioxo-2,5-dihydro-1H-pyrrol-3-yl)amino)benzyl)-1-methylurea], the “IKZF1 GFP/RFP Relative Abundance” value stood at 0.103 in assay [1] (setting [5]), 0.092 in assay [1] (setting [6]) and 0.080 in assay [1] (setting [7]). Also, the “IKZF2 GFP/RFP Relative Abundance” value is 0.058 in assay [2] (setting [5]), 0.059 in assay [2] (setting [6]) and 0.062 in assay [2] (setting [7]). The figures for the “GSPT1 GFP/RFP Relative Abundance” value in assay [3] (setting [5]), in assay [3] (setting [6]) and in assay [3] (setting [7]) were 0.308, 0.815 and 0.787, respectively. The “TR-FRET-IKZF2 (Normalized to CC-885)” value in assay [4] (setting [8]) was 1.559; in assay [4] (setting [9]) it was 1.367; in assay [4] (setting [10]), 1.205.
